Experimental findings from patent US20240082184A1, “IMPROVED TREATMENT FOR GLOBOID CELL LEUKODSYTROPHY OR KRABBE DISEASE” (priority 2021, published 2024) are described below.

What all share (format): in vivo
The subject of test [1] is GALC−/− mice. The test is described as follows: Open field locomotor activity. As to conditions: oral, 15 days.
Description: The open field test was conducted for analyzing general motor activities of mice. Locomotor activities were monitored by open field performance and footprint analysis as described in previous studies. […] Mice were placed in the center of a square wooden open field arena (40×40 cm, 30 cm high walls) and allowed to explore freely for 5 min. The movements of the mice were recorded using a camera linked to the Noldus system and EthoVisionXT software. Several parameters including velocity, total distance moved, movement/center point frequency, body elongation, etc. were analyzed to assess the general locomotor activity.
Following 15 days of treatment, open field locomotor activities were measured. […] Parameters related to movement of animals were obtained from the software and presented as velocity center point (B), distance moved center point (C), movement-center point frequency (D), and body elongation (E).
Locomotor activity was monitored as in Example 5. Following 15 days of treatment, open field locomotor activities were measured. […] Parameters related to movement of animals were obtained from the software and presented as velocity center point (B), distance moved center point (C), movement-center point frequency (D), and body elongation (E).
Test [2] has as its system GALC−/− mice. Description: Lifespan (percentage of survival, Kaplan-Meier plot). The note with it: oral. The text has this: Heterozygous animals were used only for breeding purposes and were not used in the study. Animal maintaining and experiments were in accordance with National Institute of Health guidelines and were approved by the Institutional Animal Care and Use committee of the Rush University of Medical Center, Chicago, IL. Treated and untreated mice were allowed to survive humanely as long as possible. When a mouse reached a moribund stage, it was sacrificed.
As discussed below, after 2 weeks of oral feeding, several parameters were monitored including locomotor activity followed by examining myelin status and glial activation in cerebellum and corpus callosum. Longevity of GALC^−/− mice after drug treatment was also examined. In that case, GALC^−/− mice were treated with the drugs daily until mice reached the moribund stage.
Mice were treated continually until they reached the moribund stage at which point they were humanely sacrificed.

The subject of test [3] is GALC−/− mice. The test is described as follows: Luxol fast blue (LFB) staining for myelin. The note with it: cerebellum and corpus callosum, oral, 15 days.
Excerpt: Cerebellar and corpus callosum sections of paraformaldehyde-fixed brain tissues were stained with Luxol fast blue for myelin as described elsewhere. […] FIG. 5 similarly depicts luxol fast blue (LFB) staining of myelin in the cerebellum (A) and corpus callosum (B) of GALC^−/− mice following identical treatment. Results represent analysis of two different sections of each of five mice (n=5) per group. […] FIG. 13 similarly depicts luxol fast blue (LFB) staining of myelin in the cerebellum (A) and corpus callosum (B) of GALC^−/− mice following identical treatment. Results represent analysis of two different sections of each of five mice (n=5) per group.
Test [4] deals with GALC−/− mice. Description: Immunofluorescence (immunostaining) of brain sections for PLP, MFI. As to conditions: cerebellum and corpus callosum, oral, 15 days.
Description: After 2 weeks of treatment, mice were anesthetized and perfused with PBS (pH 7.4) and then with 4% (w/v) paraformaldehyde solution in PBS. […] Briefly, brains were incubated in PBS containing 0.05% Tween 20 (PBST) and 10% sucrose for 3 h and then 30% sucrose overnight at 4° C. Hemisected brains was then embedded in O.C.T (Tissue Tech) at −80° C. and processed for conventional cryosectioning. Frozen cerebellar and corpus callosum sections (40 micron thick) were treated with cold ethanol (−20° C.) followed by two rinses in PBS, blocking with 3% bovine serum albumin in PBST and labeling with anti-PLP antibody. After three washes in PBST, sections were further incubated with Cy5 (Jackson ImmunoResearch Laboratories, Inc.). The samples were mounted and observed under the Olympus BX41 fluorescent microscope equipped with a Hamamatsu ORCA-03G camera. Captured images were calibrated with the scale bar and then opened in ImageJ software for further quantification analysis. […] The final MFI was analyzed after subtracting the value with the background signal of respective images.
DAPI was used to visualize nucleus. Mean fluorescence intensity (MFI) of PLP was quantified (C, cerebellum; D, corpus callosum) in two different sections of each of five mice (n=5) per group. […]
The test system of test [5] is GALC−/− mice. The test is described as follows: Astroglial activation: GFAP and iNOS levels in brain by Western blot. The note with it: gemfibrozil 8 mg/kg/d alone or with vitamin A 150 IU/kg/d, oral, 15 days. (In general: A western blot detects proteins with antibodies after separation by electrophoresis.)
The subject of test [6] is GALC−/− mice. Description: Levels of myelin proteins PLP and MBP in brain by Western blot. As to conditions: gemfibrozil 8 mg/kg/d alone or with vitamin A 150 IU/kg/d.
The mark [7] stands for this setting: cerebellum, oral gavage, 15 days from 10 d of age, FIG. 2.
Where [8] appears, read: corpus callosum, oral, 15 days, FIG. 3.

With `O=C(O)C=Cc1ccccc1` [cinnamic acid], the “motor activity in open field versus vehicle treatment” value in the test on GALC−/− mice [1] (cinnamic acid 25 and 50 mg/kg/day, FIG. 16) was “increased”. Also, in the test with GALC−/− mice [2] (cinnamic acid 25 and 50 mg/kg/day, until moribund stage, FIG. 17), the “lifespan (percentage of survival)” value was “increases the lifespan”. Besides, the “myelin status by luxol fast blue (LFB) staining” value in the test with GALC−/− mice [3] (cinnamic acid 25 and 50 mg/kg/day, FIG. 13) is on record as “protection of myelin”. For the same molecule, the “myelin status by PLP immunostaining (MFI of PLP)” value with GALC−/− mice [4] (cinnamic acid 25 and 50 mg/kg/day, FIG. 12) is “protecting myelin”.

Consider `Cc1ccc(C)c(OCCCC(C)(C)C(=O)O)c1` [gemfibrozil], for which, in the test with GALC−/− mice [1] (gemfibrozil 8 mg/kg/d alone or with vitamin A 150 IU/kg/d, FIG. 8), the “motor activity in open field versus vehicle treatment” value is “increased”. In addition, the “lifespan (percentage of survival)” value with GALC−/− mice [2] (gemfibrozil 8 mg/kg/d alone or with vitamin A 150 IU/kg/d, daily until moribund stage, FIG. 9) was “increase the lifespan”. Also, the “level of GFAP (GFAP/Actin relative to control)” value with GALC−/− mice [5] (cerebellum, FIG. 6) is listed as “significantly reduced”; in the test on GALC−/− mice [5] (corpus callosum, FIG. 7), “significantly reduced”. Moreover, the “level of iNOS (iNOS/Actin relative to control)” value is “significantly reduced” in the test with GALC−/− mice [5] (cerebellum, FIG. 6) and “significantly reduced” in the test with GALC−/− mice [5] (corpus callosum, FIG. 7). Moreover, the “myelin status by luxol fast blue (LFB) staining” value with GALC−/− mice [3] (gemfibrozil 8 mg/kg/d alone or with vitamin A 150 IU/kg/d, FIG. 5) is given as “protection of myelin”. Moreover, the “level of MBP (MBP/Actin relative to control)” value in the test with GALC−/− mice [6] (setting [7]) and in the test on GALC−/− mice [6] (setting [8]) was “significantly increased” throughout. In addition, the “level of PLP (PLP/Actin relative to control)” value with GALC−/− mice [6] (setting [7]) and in the test on GALC−/− mice [6] (setting [8]) was “significantly increased” in each case. The “myelin status by PLP immunostaining (MFI of PLP)” value in the test with GALC−/− mice [4] (gemfibrozil 8 mg/kg/d alone or with vitamin A 150 IU/kg/d, FIG. 4) is recorded as “protecting myelin”.
